Assay [1] relates to secretory coil cells of human eccrine glands. Briefly: Inhibition of methylcholine-induced calcium influx into human eccrine secretory coil cells (Fura-2). It counts as cell-based. The procedure: The procedure is performed on an isolated human sweat gland. Collapsed segments of secretory coil are held between two glass pipettes in the perfusion bath of an inverted microscope and bathed at 37° C. in a solution buffered to pH 7.4. Intracellular calcium may be measured by any convenient means; in our tests the fluorescent dye FURA-2 AM was used (full details are given in Examples 1 and 2). The calcium influx induced by the administration of methylcholine at 1 μmol.dm^−3 is compared before and after the introduction of the test material into the buffer solution. Test materials are classed as CCBAs if they are able to reduce the methylcholine-induced calcium influx into the cells, preferably by at least 20%, more preferably by at least 50%. The concentration of test material used should be between 1 and 100 μmol.dm^−3 for pure compounds, 25 μmol.dm^−3 being a typical concentration of use. When the test material used is not a pure compound, for example when it is a plant extract, allowance must be made for the non-active components in the extract when choosing the test dosage.
(§1) Collapsed segments of secretory coil were held between two glass pipettes in the perfusion bath of an inverted Olympus IMT-2 microscope and bathed in a solution at 37° C. containing (in mmol.dm^−3): sodium chloride, 130; HEPES (buffer; 4-[2-hydroxyethyl]-1-piperazineethanesulphonic acid), 20; potassium chloride, 5; calcium chloride, 1; magnesium chloride, 1; and glucose, 10. The pH of the solution was adjusted to 7.4 using 1 mol.dm^−3 sodium hydroxide solution.
The calcium influx was induced by the administration of methylcholine (a cholinergic agonist) at 1 μmol.dm^−3. This was first done for control solutions containing no CCBA and then for test solutions containing tetrandrine (various dosages).
Intracellular calcium concentration was measured using the fluorescent probe Fura-2, a dye that has high affinity for calcium. When illuminated with ultraviolet light at 350 and 380 nm, Fura-2 emits corresponding fluorescent signals. Importantly, when calcium binds to the dye, the magnitude of the emitted fluoresence signal alters. It is these changes that are used to calculate the intracellular calcium concentration (vide infra).
Segments of secretory coil were incubated for 40 minutes, at 37° C., with 5 μm.dm^−3 Fura-2 AM. This form of Fura-2 is lipid soluble and readily enters the cell where the AM group is cleaved off by esterases, leaving the fluorescent lipid-insoluble dye trapped within the cells. Excitation light at 350 and 380 nm was supplied from a computer controlled Photon Technology International (PTI) spectrofluorimeter. This light was passed through a 390 nm dichroic mirror, prior to passage through the microscope objective (×40) and onto the tissue sample. The fluorescence resulting from the tissue was passed through a 505 nm bandpass filter, before being detected by a photomultiplier tube. The output from the photomultiplier tube was digitised and analysed using Photon Technology International software. Background fluorescence (measured prior to introduction of the Fura-2 AM) was subtracted from the total signal for each wavelength and a value representing the intracellular calcium concentration was obtained by dividing the fluorescence value resulting from the 350 nm excitation light by that resulting from the 380 nm excitation light.

In assay [2] the test system is secretory coil cells of human apocrine glands. Briefly: Inhibition of methylcholine-induced calcium influx into human apocrine secretory coil cells (Fura-2). It counts as cell-based. The procedure: as §1
Intracellular calcium concentration was measured using the fluorescent probe Fura-2, a dye that has high affinity for calcium. When illuminated with ultraviolet light at 350 and 380 nm, Fura-2 emits corresponding fluorescent signals. Importantly, when calcium binds to the dye, the magnitude of the emitted fluoresence signal alters. […]
Segments of secretory coil were incubated for 40 minutes, at 37° C., with 5 μm.dm^−3 Fura-2 AM. This form of Fura-2 is lipid soluble and readily enters the cell where the AM group is cleaved off by esterases, leaving the fluorescent lipid-insoluble dye trapped within the cells. […] The fluorescence resulting from the tissue was passed through a 505 nm bandpass filter, before being detected by a photomultiplier tube. The output from the photomultiplier tube was digitised and analysed using Photon Technology International software. […]

The test system of assay [3] is isolated human eccrine glands. The assay is described as follows: In vitro sweat reduction study on isolated human eccrine glands. It counts as cell-based. The text has this:
This example illustrates the ability of CCBAs to reduce sweat secretion from isolated human eccrine glands.
The method employed was analogous to that described by Sato and Sato in Am. J. Physiol., 1973, 225, 1147-1151.

Assay [4] has as its system Staphylococcus epidermidis. To be noted: cited from earlier work.
Assay [5] deals with isolated cannulated monkey palm eccrine sweat glands. To be noted: in vitro; cited from earlier work.

We go through six molecules from US6632422B2, “Antiperspirant and deodorant products and methods for their use” (priority 2000, dated 2003).

Structures can show the parent of a compound that is named as a salt. Where two headings read alike, the source gives them in different places.

Regarding `COc1ccc2cc1Oc1ccc(cc1)C[C@H]1c3cc(c(OC)cc3CCN1C)Oc1c(OC)c(OC)cc3c1[C@H](C2)N(C)CC3` [Tetrandrine, tetrandrine], the Ca influx inhibition was 24% in assay [1] (dosage 1 μmol.dm^−3, methylcholine 1 μmol.dm^−3); 44% in assay [1] (dosage 10 μmol.dm^−3, methylcholine 1 μmol.dm^−3); 75% in assay [1] (dosage 25 μmol.dm^−3, methylcholine 1 μmol.dm^−3); 96% in assay [1] (dosage 50 μmol.dm^−3, methylcholine 1 μmol.dm^−3); 100% in assay [1] (dosage 100 μmol.dm^−3, methylcholine 1 μmol.dm^−3); 60% in assay [2] (dosage 10 μmol.dm^−3, methylcholine 50 μmol.dm^−3). Besides, in assay [2] (dosage 50 μmol.dm^−3, methylcholine 50 μmol.dm^−3), the Ca influx inhibition came to 93%. For the same molecule, the “% reduction in sweat secretion” value in assay [3] (dosage 50 μmol.dm^−3) is given as 93%.

On to `COc1ccc(CCN(C)CCCC(C#N)(c2ccc(OC)c(OC)c2)C(C)C)cc1OC` (stereo not shown) [Verapamil hydrochloride], for which the “% reduction in sweat secretion” value in assay [3] (dosage 1000 μmol.dm^−3) is given as 93%.

Consider `CCO` [ethanol], for which the MIC result in assay [4] (stated by contrast, no source given) is recorded as “greater than 1 mg.ml^−1”.

As for `CC(C)=CCCC(C)=CCCC(C)=CCO` [farnesol, 3,7,11-trimethyldodeca-2,6,10-trienol], the minimum inhibitory concentration (MIC) result in assay [4] (literature values) is “ca. 25 μg.ml^−1”.

For the molecule `Oc1cc(Cl)ccc1Oc1ccc(Cl)cc1Cl` [triclosan, 2′,4,4′-trichloro, 2-hydroxy-diphenyl ether], in assay [4] (literature values), the MIC was 0.01 to 10 µg/mL.

As to methoxy-verapamil, the “effect on sweat production” value in assay [5] is given as “reduce sweat production”.

As a reminder, the MIC is the smallest concentration in the dilution series that meets the test's criterion for growth inhibition.
